Columns and labels:
[1] = system: HCT-116 (human colon cancer); assay: Cell culture cytotoxicity screening (Alamar Blue), HCT-116; type: cell-based; details: HCT-116, Alamar Blue, 72 hours
Description: (§1) FIG. 8. Cytotoxicity of pantaphos across various cancer cell lines. Assays were conducted as described (mBio. 2021 Feb. 2; 12(1):e03402-20), using the Alamar Blue method with 72-hour treatment using Raptinal ([…]) as Dead cell control; n=3. Cell seeding densities: CT26 (colon carcinoma) 2000 c/w; HOS (osteosarcoma) 2500 c/w; ES-2 (ovarian carcinoma), HCT-116 (colorectal carcinoma), A-549 (lung carcinoma), A-172 (glioblastoma), D54 (glioblastoma), U87 (glioblastoma), T98G (glioblastoma), SK-ML-28 (melanoma), MCF-7 (breast cancer), AM38 (glioblastoma) and MDA-MB-231 (breast cancer) 3000 c/w; U118MG (malignant glioma) 4000 c/w; HepG2 (liver cancer) 8000 c/w. c/w=cells per well. […]
(§2) Cell culture cytotoxicity screening. The compounds were evaluated for their ability to kill cancer cell lines in culture, using HOS (osteosarcoma); ES-2 (ovarian cancer); HCT 116 (colon cancer); A549 (lung carcinoma); and A172 (glioma) cells. Human skin fibroblast cells (HFF-1) were also assessed. […] 72 hours post-treatment, cell viability was assessed using the Alamar Blue method (http://www.bio-rad-antibodies.com/measuring-cytotoxicity-proliferation-spectrophotometry-fluorescence-alamarBlue.html). […] Conversion of Alamar Blue was measured with a plate reader (SpectraMax M3; Molecular Devices) by fluorescence (excitation wavelength: 555 nm; emission wavelength: 585 nm; cutoff 570 nm; autogain). […]

[2] = system: A-549 (human lung carcinoma); assay: Cell culture cytotoxicity screening (Alamar Blue), A-549; type: cell-based; details: A549, A-549, Alamar Blue, 72 hours
Description: as §1, §2

D54 (glioblastoma) = assay: Cytotoxicity profiling (Alamar Blue), D54; type: cell-based; details: Homo sapiens, 72-hour treatment
Description: as §1, §2

[3] = system: U118MG (malignant glioma); assay: Cytotoxicity profiling (Alamar Blue), U118MG; type: cell-based; details: Homo sapiens, U-118-MG, 72-hour treatment
Description: as §1, §2

T98G (glioblastoma) = assay: Cytotoxicity profiling (Alamar Blue), T98G; type: cell-based, human
Description: as §1, §2

[4] = system: Enterococcus faecalis ATCC 19433; assay: Antibacterial bioassay (MIC), Enterococcus faecalis; type: cell-based; details: ATCC19433, Mueller-Hinton 2 medium, CLSI, read-out: MIC, Rich medium
Description: Antibacterial bioassays. Susceptibility testing for the ESKAPE pathogens and Salmonella enterica LT2 was performed using a Kirby-Bauer method as outlined by the Clinical and Laboratory Standards Institute (CLSI). For rich media bioassays, Mueller Hinton Broth 2 (MH-2, Sigma-Aldrich, 90922) was used for all strains except 1% BHI was supplemented for Enterococcus faecalis ATCC 19433. For minimal media bioassays, glucose-MOPS minimal medium was used. Briefly, overnight bacterial cultures were sub-cultured and inoculated into 5 mL top agar (0.7% agar) for final concentration of 5×10^5 CFU/mL. Then, 20 μL of a compound 2-fold dilution series (200, 100, 50, 25, 12.5, 6.25 μM in water) was spotted on 6 mm diameter blank paper discs (BD BBL™ 231039). Control discs received 20 μL of 50 mg/mL kanamycin. Plates were incubated at 35° C. for 20-24 hours. […] Sensitivity of the IPTG-inducible phosphonate uptake strain WM6242 to pantaphos was tested using a disk diffusion assay. Plates containing growth medium were overlayed with 5 mL of top agar (0.7% agar) inoculated with 100 μL (OD600=0.8) of the phosphonate-specific E. coli indicator strain (WM6242) with or without addition of 1 mM IPTG. WM6242 is engineered with an IPTG-inducible, non-specific phosphonate uptake system (phnCDE). […]

[5] = read-out: Emax = percentage cell death (converted)

Question: Which IC50 [1] does the source give for `O=C(O)/C=C(\C(=O)O)C(O)P(=O)(O)O` (stereo not drawn) [pantaphos, 2-(hydroxy(phosphono)methyl)maleate] here?
Answer: 10.4 ± 2 µM

Question: What about the Emax [1, 5] of the same compound?
Answer: 59%

Question: What about the IC50 [2] of the same compound?
Answer: 14.7 ± 0.61 µM

Question: What about the Emax [2, 5] of the same compound?
Answer: 66%

Question: And the Emax (D54 (glioblastoma))?
Answer: 46 to 58%

Question: And the Emax [3]?
Answer: 38 to 45%

Question: What about the IC50 (T98G (glioblastoma); Homo sapiens, T98G, Alamar Blue, 72-hour treatment (Table 6)) of the same compound?
Answer: > 100 µM

Question: What about the “sensitivity of the cell line to pantaphos, in words” value (T98G (glioblastoma); glioblastoma cell line printed as TG98) of the same compound?
Answer: resistant

Question: And the MIC [4]?
Answer: > 200 µM

Reference: patent US20250282802A1, “P[…] AND METHODS” (priority 2020, published 2025)
